Common to all, as to assay: Resistance index determination of drug resistance cell lines
One experiment relates to KYSE 450. The format is cell-based. To be noted: Homo sapiens. Here is the method:
(§1) […]. Three types of esophageal cancer cell lines KYSE70TR, KYSE410TR, and KYSE450TR which were resistant to paclitaxel, and NSCLC cell lines HCC827GR and H1650TR, which were resistant to gefitinib and paclitaxel, respectively, were also tested for the comparison purpose.

Another experiment deals with KYSE 410. Type of experiment: cell-based. To be noted: Homo sapiens. Here is the method: as §1
For another experiment, the system named is KYSE 70. Type of experiment: cell-based. To be noted: Homo sapiens. Here is the method: as §1
A further experiment deals with H1650. Type of experiment: cell-based. To be noted: Homo sapiens. Here is the method: as §1
The test system of a further experiment is KYSE 450TR. The format is cell-based, human. To be noted: for IC50: Homo sapiens, KYSE 450TR. The procedure: as §1
Another experiment deals with KYSE 410TR. The format is cell-based, human. To be noted: for IC50: Homo sapiens, KYSE 410TR. The procedure:
as §1

The test system of a further experiment is H1650TR. The format is cell-based, human. To be noted: for IC50: Homo sapiens, H1650TR. The procedure:
as §1

In the next experiment the test system is KYSE 70TR. The format is cell-based, human. To be noted: for IC50: Homo sapiens, KYSE 70TR. The procedure:
as §1

Molecules are shown by their SMILES. Where two headings read alike, the source gives them in different places.

What is called IC50 is the concentration needed to halve the response being measured. Turning to `CC(=O)O[C@H]1C(=O)[C@@]2(C)[C@H]([C@H](OC(=O)c3ccccc3)[C@]3(O)C[C@H](OC(=O)[C@H](O)[C@@H](NC(=O)c4ccccc4)c4ccccc4)C(C)=C1C3(C)C)[C@]1(OC(C)=O)CO[C@@H]1C[C@@H]2O` [paclitaxel], the IC50 in the experiment on KYSE 450 (KYSE 450, 24 h, read-out: 24 h IC50) turned out to be 55.03 ± 0.33 nM; in the experiment with KYSE 450 (KYSE 450, 48 h, read-out: 48 h IC50) it was 7.82 ± 0.84 nM; in the experiment on KYSE 410 (KYSE 410, 24 h, read-out: 24 h IC50) it was 1280 ± 69.3 nM; in the experiment with KYSE 410 (KYSE 410, 48 h, read-out: 48 h IC50) it was 52 ± 3.45 nM; in the experiment on KYSE 70 (KYSE 70, 24 h, read-out: 24 h IC50), 640 ± 43 nM; with KYSE 70 (KYSE 70, 48 h, read-out: 48 h IC50), 20.2 nM. For the same compound, the IC50 with H1650 (NCI-H1650, 24 h, read-out: 24 h IC50) worked out at 870 ± 43.5 nM; with H1650 (NCI-H1650, 48 h, read-out: 48 h IC50) it was 83.3 ± 3.33 nM; with KYSE 450TR (24 h, read-out: 24 h IC50), 266 ± 66.1 nM; in the experiment with KYSE 450TR (48 h, read-out: 48 h IC50) it was 120 ± 32.1 nM; with KYSE 410TR (24 h, read-out: 24 h IC50), 6400 ± 430 nM; in the experiment on KYSE 410TR (48 h, read-out: 48 h IC50) it was 1710 ± 86.4 nM. For the same compound, the IC50 in the experiment with H1650TR (24 h, read-out: 24 h IC50) was found to be 4130 ± 208 nM; in the experiment with H1650TR (48 h, read-out: 48 h IC50), 645 ± 45 nM; in the experiment with KYSE 70TR (24 h, read-out: 24 h IC50) it was 4920 ± 274 nM; with KYSE 70TR (48 h, read-out: 48 h IC50), 1120 ± 35.2 nM. The Resistance index came to 4.84 with KYSE 450TR (KYSE 450TR vs KYSE 450, 24 h IC50); 15.38 with KYSE 450TR (KYSE 450TR vs KYSE 450, 48 h IC50); 5 in the experiment on KYSE 410TR (KYSE 410TR vs KYSE 410, 24 h IC50); 32.88 in the experiment with KYSE 410TR (KYSE 410TR vs KYSE 410, 48 h IC50); 4.74 in the experiment with H1650TR (H1650TR vs H1650, 24 h IC50); 7.74 in the experiment on H1650TR (H1650TR vs H1650, 48 h IC50). The Resistance index with KYSE 70TR (KYSE 70TR vs KYSE 70, 24 h IC50) was determined as 7.69; in the experiment with KYSE 70TR (KYSE 70TR vs KYSE 70, 48 h IC50) it was 56.

For the origin of these results see article PMC9065260 (Frontiers in Pharmacology, 2022).
